Measurements as given in PubChem BioAssay AID520 (NMMLSC, 2006).
pKi: −log10 of the molar value. The source made the active and inactive calls. No rule for the calls is given here.

Biological target: N-formyl peptide receptor 2 (Homo sapiens) (UniProt P25090)
Assay: concentration-dependent FPRL1 ligand displacement – cell-based, FPR counter-screen, fluorescent ligand, dose response (AID 520)
Conditions: FPRL1-expressing cells, fluorescent ligand binding inhibition; for pKi: measured here: FPRL1 binding Ki

Chain of N-formyl peptide receptor 2 (Homo sapiens) (P25090 whole entry, looked up): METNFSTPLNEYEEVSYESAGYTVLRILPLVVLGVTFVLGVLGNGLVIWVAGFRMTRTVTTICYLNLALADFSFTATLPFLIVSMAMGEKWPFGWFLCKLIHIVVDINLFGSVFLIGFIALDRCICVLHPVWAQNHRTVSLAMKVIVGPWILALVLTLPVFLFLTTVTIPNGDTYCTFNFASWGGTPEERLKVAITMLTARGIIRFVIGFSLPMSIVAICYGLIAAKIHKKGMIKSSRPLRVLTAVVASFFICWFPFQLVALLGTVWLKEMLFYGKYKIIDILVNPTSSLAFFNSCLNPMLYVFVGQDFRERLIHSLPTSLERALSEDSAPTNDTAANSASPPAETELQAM

pKi | IC50 | Structure (SMILES)
< 4.39 |  | Cc1nnc(SCc2cnc(-c3ccccc3)o2)[nH]c1=O
< 4.39 |  | Cc1ccc(F)c(NC(=O)C2CCCCC2C(=O)O)c1 (centres undefined)
< 4.39 |  | Cc1c(CNCc2cccs2)c(C(=O)O)c(C)n1Cc1ccccc1
< 4.39 | > 66.7 µM (inactive) | O=C(C1=C(O)C(=O)N(CCCN2CCOCC2)C1c1ccccn1)c1cc2ccccc2o1 (centres undefined)
< 4.39 |  | CCCS(=O)(=O)N1CCCC(C(=O)N2CCC(Cc3ccccc3)CC2)C1 (centres undefined)
< 4.39 |  | Cc1c(C(=O)NC2CCCc3ccccc32)oc2ccc(S(=O)(=O)N3CCOCC3)cc12 (centres undefined)
< 4.39 |  | CCc1nn2c(=O)cc(CSc3nc4sc5c(c4c(=O)n3C)CCCC5)nc2s1
< 4.39 |  | O=C(NCCCN1CCN(c2ccc(F)cc2)CC1)c1cccc(N2CCCC2=O)c1
< 4.39 | > 66.7 µM (inactive) | COc1ccc(C2/C(=C(/O)c3ccccc3)C(=O)C(=O)N2CC(C)O)c(OC)c1 (centres undefined)
< 4.39 |  | CCOC(=O)c1c(C)[nH]c(C=Nc2ccccc2)c1O
< 4.39 | > 66.7 µM (inactive) | CC1Cc2cc(/C(O)=C3\C(=O)C(=O)N(CCN4CCOCC4)C3c3ccccc3F)ccc2O1 (centres undefined)
< 4.39 | > 66.7 µM (inactive) | CCOc1cc(C2C(C(=O)c3ccco3)=C(O)C(=O)N2CCc2ccccc2)ccc1O (centres undefined)
< 4.39 |  | Cc1ccc(Nc2nc(C3CC3)cs2)cc1
< 4.39 | > 66.7 µM (inactive) | COc1cc(C2C(C(=O)c3ccco3)=C(O)C(=O)N2CCc2ccccc2)ccc1O (centres undefined)
